Broadly, the Ki is the equilibrium dissociation constant of an inhibitor or competing ligand from its target.

rat MCH-1, sequence (P97639 whole entry): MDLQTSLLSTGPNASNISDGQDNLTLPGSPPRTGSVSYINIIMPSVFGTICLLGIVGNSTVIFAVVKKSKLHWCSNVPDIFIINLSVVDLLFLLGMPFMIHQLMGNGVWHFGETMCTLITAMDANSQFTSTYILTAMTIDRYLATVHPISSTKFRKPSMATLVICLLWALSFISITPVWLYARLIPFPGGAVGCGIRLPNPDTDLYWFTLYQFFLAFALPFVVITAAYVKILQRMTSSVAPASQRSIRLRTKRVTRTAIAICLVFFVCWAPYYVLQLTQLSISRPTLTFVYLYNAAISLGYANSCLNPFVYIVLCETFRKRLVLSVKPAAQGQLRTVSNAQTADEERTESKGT

The first assay addresses rat MCH-1 (Rattus norvegicus, UniProt P97639). In words: Radioligand binding assay at cloned rat MCH1 receptor ([3H] Compound A). Also noted: host or cells: Peak rapid 293 (Peakr293) cells, transient calcium phosphate transfection, membranes.
Conditions: not given
On to `CC(C)C(=O)Nc1cccc(C2CCN(Cc3cccc4[nH]ccc34)CC2)c1` [Example 830], for which the Ki stood at 469 nM.

The assay is the same for the next values; noted with them: cloned rat MCH1 receptor; 0.08 nM [3H] Compound A; Peakr293 cell membranes; read-out: Ki (nM) rMCH1.
`CC(C)C(=O)Nc1cccc(C2CCN(CCCCCC(O)c3ccc(Cl)cc3)CC2)c1` (stereo not drawn) [Example 818]: the Ki came out at 38.2 nM.
As to `CC(C)C(=O)Nc1cccc(C2CCN(CCCCC(O)c3ccc(Cl)cc3)CC2)c1` (stereo not drawn) [Example 819], the inhibition constant Ki was 80.2 nM.
In the case of `CCCC(=O)Nc1ccc(C2CCN(Cc3ccc4c(c3)c3ccccc3n4CC)CC2)cc1` [Example 820], the Ki came to 109 nM.
Take `CCC(=O)Nc1cccc(C2CCN(Cc3ccc4c(c3)c3ccccc3n4CC)CC2)c1` [Example 821]: the inhibition constant Ki is 12.1 nM.
On the same count and under the same terms, the same measure for `Cc1cc(CN2CCC(c3cccc(NC(=O)C(C)C)c3)CC2)cc2c3ccccc3n(C)c12` [Example 822]: 1 nM; for `CCn1c2ccccc2c2cc(CN3CCC(c4cccc(NC(=O)C5CC5)c4)CC3)ccc21` [Example 823]: 2.7 nM; for `CCn1c2ccccc2c2cc(CN3CCC(c4cccc(N5CCCC5=O)c4)CC3)ccc21` [Example 824]: 36.5 nM.
The same measure, in the same setting: the same measure for `CC(C)C(=O)Nc1ccc(C2CCN(CCCCCn3ccc4ccccc43)CC2)cc1` [Example 825]: 601 nM; for `CCCC(=O)Nc1ccc(C2CCN(CCCCCn3ccc4ccccc43)CC2)cc1` [Example 826]: 786 nM; for `CCC(=O)Nc1ccc(C2CCN(CCCCCn3ccc4ccccc43)CC2)cc1` [Example 827]: 215 nM.
As for `CCC(=O)Nc1ccc(C2CCN(CCCCCCn3ccc4ccccc43)CC2)cc1` [Example 828], the inhibition constant (Ki) was 516 nM.
Take `CC(C)C(=O)Nc1cccc(C2CCN(Cc3cc4ccccc4n3C)CC2)c1` [Example 829]: the Ki is 228 nM.
Take `CC(C)C(=O)Nc1ccc(C2CCN(CCCCCCn3ccc4ccccc43)CC2)cc1` [Example 831]: the Ki was determined as 570 nM.
`CC(C)C(=O)Nc1cccc(C2CCN(Cc3cccc4cc[nH]c34)CC2)c1` [Example 832]: the Ki came out at 614 nM.
For the compound `COc1ccc(-n2ccc3cc(CN4CCC(c5cccc(NC(=O)C(C)C)c5)CC4)ccc32)cc1` [Example 833], the Ki worked out at 27.5 nM.
As for `COC(=O)c1ccc(-n2ccc3c(CN4CCC(c5cccc(NC(=O)C(C)C)c5)CC4)cccc32)cc1` [Example 834, METHYL 4-[4-({4-[3-(ISOBUTYRYLAMINO)PHENYL]-1-PIPERIDINYL)METHYL)-1H-INDOL-1-YL]BENZOATE], the Ki worked out at 38.3 nM.
As for `Cc1cccc(-n2ccc3cc(CN4CCC(c5cccc(NC(=O)C(C)C)c5)CC4)ccc32)c1` [Example 835], the Ki came to 21.3 nM.
In the case of `CC(C)C(=O)Nc1cccc(C2CCN(Cc3cccc4c3ccn4-c3ccc(F)cc3)CC2)c1` [Example 836], the inhibition constant Ki was determined as 7.8 nM.
Turning to `CC(C)C(=O)Nc1cccc(C2CCN(CCCCn3ccc4ccccc43)CC2)c1` [Example 837], the Ki amounted to 35.9 nM.
The same measure, in the same setting: the same measure for `CC(C)C(=O)Nc1cccc(C2CCN(Cc3ccc4c(ccn4-c4ccc(Cl)cc4)c3)CC2)c1` [Example 838]: 11.2 nM; for `COc1cccc(-n2ccc3cc(CN4CCC(c5cccc(NC(=O)C(C)C)c5)CC4)ccc32)c1` [Example 839]: 62.2 nM; for `CCCC(=O)Nc1ccc(C2CCN(CCCCn3ccc4ccccc43)CC2)cc1` [Example 840]: 663 nM.
Still for that read-out and setting: the same measure for `COc1ccccc1-n1ccc2cc(CN3CCC(c4cccc(NC(=O)C(C)C)c4)CC3)ccc21` [Example 841]: 25 nM; for `CC(C)C(=O)Nc1cccc(C2CCN(Cc3ccc4c(ccn4-c4cccc(Cl)c4)c3)CC2)c1` [Example 842]: 15.8 nM; for `COC(=O)c1ccccc1-n1ccc2cc(CN3CCC(c4cccc(NC(=O)C(C)C)c4)CC3)ccc21` [Example 843, METHYL 2-[5-({4-[3-(ISOBUTYRYLAMINO)PHENYL]-1-PIPERIDINYL}METHYL)-1H-INDOL-1-YL]BENZOATE]: 15.5 nM.
In the case of `CC(C)C(=O)Nc1cccc(C2CCN(CCCn3ccc4ccccc43)CC2)c1` [Example 844], the inhibition constant Ki is 37.8 nM.

The record behind these values is patent US6727264B1 (Synaptic Pharmaceutical Corporation, priority 2001, dated 2004).
